Measurements: article PMC10766536 (The Journal of Antibiotics, 2023)
“Also recorded” adds a separate entry of the source. Values belong to the compound of their own block, whether it stands above or below them.

Tests used:
hERG = hERG (Homo sapiens, UniProt Q12809); experiment: in vitro
S. aureus NRS384 [1] = experiment: S. aureus intracellular killing assay in THP-1 macrophages; format: cell-based; conditions: S. aureus NRS384 in THP-1 macrophages, 2 h, top conc. 1e−6 M
Description: (§1) THP-1 monocytic cell line (American Type Culture Collection) was grown in media (RPMI + 10% FBS + 1% Penicillin/Streptomycin), then seeded at a density of 1e5 cells/well in a 96 well plate and differentiated into macrophages for 3 days prior to infection using 200 nM PMA. Overnight culture of S. aureus or S. typhimurium was grown in RPMI or TSB, respectively, washed twice with PBS and resuspended at 1e7 cfu/ml in PBS. THP-1 were washed with warm media (RMPI without FBS) to remove the Penicillin/Streptomycin and then infected with the bacterial suspension at a multiplicity of infection of 10:1 (S. aureus:macrophages) or 5:1 (S. typhimurium:macrophages). Plates were centrifuged at 300 × g for 5 min to synchronize adhesion of the bacteria to the macrophages, then incubated at 37 °C for 2 h for S. aureus infection or 1 h for S. typhimurium infection. Free-floating bacteria were removed by washing twice with warm media and the remaining extracellular bacteria were killed by addition of media containing gentamicin (50 ug/ml). After 1 h, media was aspirated and the indicated compound was added to the S. aureus-infected macrophages in a dilution series starting at 1e−6 M, with 1:5 dilutions for 6 points (1.0 × 10^−6 M, 2.0 × 10^−7 M, 4.0 × 10^−8 M, 8.0 × 10^−9 M, 1.6 × 10^−9 M, and 3.2 × 10^−10 M) or to the to the S. typhimurium-infected macrophages in a dilution series starting at 1e−4 M, with 1:3 dilutions followed by 1:10 dilutions for 6 points (1.0 × 10^−4 M, 3.0 × 10^−5 M, 1.0 × 10^−5 M, 1.0 × 10^−6 M, 1.0 × 10^−7 M, and 1.0 × 10^−8 M). The compounds were added in media containing 50 µg/ml gentamicin to prevent extracellular growth of bacteria. After 2 h, plates were washed twice with warm RPMI without FBS, and 100 μl of THP-1 lysis buffer (0.1% Triton in PBS) was added to each well. Bacterial survival was enumerated by colony forming units (cfu) through serial dilution and plating onto tryptic soy agar (TSA, Teknova) plates.

S. aureus NRS384 [2] = experiment: S. aureus broth killing (growth inhibition) assay; conditions: S. aureus NRS384, TSB, 24 h, OD600
Description: (§3) To test the potency of rifamycin analogs of the disclosure in vitro, a broth growth inhibition assay was developed.

[3] = system: Salmonella typhimurium ATCC 14028; experiment: S. typhimurium broth killing (growth inhibition) assay; conditions: Salmonella typhimurium ATCC 14028, TSB, 24 h
Description: as §3

[4] = biological target: MDCK-MDR1: overexpression of Pgp (Homo sapiens, UniProt P08183); experiment: MDCK-MDR1 permeability and efflux
MDCK-MDR1: overexpression of Pgp, sequence (P08183 whole entry): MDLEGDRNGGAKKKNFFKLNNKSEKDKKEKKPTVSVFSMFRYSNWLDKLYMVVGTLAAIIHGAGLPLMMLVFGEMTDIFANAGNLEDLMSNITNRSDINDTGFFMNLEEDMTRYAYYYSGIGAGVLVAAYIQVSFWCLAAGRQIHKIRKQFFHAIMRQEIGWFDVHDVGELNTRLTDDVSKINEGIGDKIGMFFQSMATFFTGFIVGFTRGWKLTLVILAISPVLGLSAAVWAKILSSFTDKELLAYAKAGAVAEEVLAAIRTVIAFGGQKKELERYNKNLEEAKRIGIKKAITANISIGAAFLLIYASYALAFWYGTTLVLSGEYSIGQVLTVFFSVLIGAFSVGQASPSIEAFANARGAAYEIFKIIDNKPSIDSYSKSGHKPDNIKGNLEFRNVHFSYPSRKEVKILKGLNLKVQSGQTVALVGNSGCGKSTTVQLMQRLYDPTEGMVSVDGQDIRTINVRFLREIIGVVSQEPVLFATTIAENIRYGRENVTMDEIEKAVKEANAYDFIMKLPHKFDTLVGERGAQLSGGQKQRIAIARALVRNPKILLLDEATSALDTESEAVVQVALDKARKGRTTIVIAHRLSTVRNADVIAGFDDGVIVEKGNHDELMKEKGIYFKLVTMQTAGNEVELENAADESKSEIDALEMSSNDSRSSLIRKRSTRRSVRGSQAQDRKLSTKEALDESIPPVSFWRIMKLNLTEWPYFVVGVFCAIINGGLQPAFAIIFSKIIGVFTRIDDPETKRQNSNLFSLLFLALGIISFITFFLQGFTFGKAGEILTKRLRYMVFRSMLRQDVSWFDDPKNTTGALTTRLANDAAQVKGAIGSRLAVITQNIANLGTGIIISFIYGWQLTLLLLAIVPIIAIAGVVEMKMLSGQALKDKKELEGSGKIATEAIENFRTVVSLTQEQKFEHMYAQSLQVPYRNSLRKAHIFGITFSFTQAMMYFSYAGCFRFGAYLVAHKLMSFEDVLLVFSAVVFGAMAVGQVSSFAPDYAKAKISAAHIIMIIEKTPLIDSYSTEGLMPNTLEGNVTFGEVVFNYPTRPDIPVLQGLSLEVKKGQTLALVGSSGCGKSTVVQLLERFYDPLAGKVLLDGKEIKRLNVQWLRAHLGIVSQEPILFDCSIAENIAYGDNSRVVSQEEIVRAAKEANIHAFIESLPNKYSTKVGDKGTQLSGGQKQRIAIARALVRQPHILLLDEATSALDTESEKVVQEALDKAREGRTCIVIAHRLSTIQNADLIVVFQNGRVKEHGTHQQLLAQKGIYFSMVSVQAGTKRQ

[5] = system: Caco-2: endogenous transporters; experiment: Caco-2 permeability
in vitro [6] = conditions: human, Caco-2
endogenous transporters = experiment: in vitro; conditions: human, Caco-2
P-gp (MDR1) = P-gp (MDR1) (Homo sapiens, UniProt P08183); experiment: in vitro; conditions: dog, MDCK-MDR1
P-gp (MDR1), sequence (P08183 whole entry): as above

[7] = Human plasma protein binding
in vitro [8] = conditions: CD-1, mouse
[9] = system: Salmonella typhimurium AR-0031; experiment: S. typhimurium broth killing (growth inhibition) assay; conditions: Salmonella typhimurium AR-0031, TSB, 24 h
Description: as §3

[10] = system: S. aureus MRSA strain N315; experiment: S. aureus IV advanced disseminated infection mouse model, kidney burden; format: in vivo, Balb/c mice
Description: (§2) S. aureus MSRA strain NRS384 or N315 (BEI Resources), where indicated, was grown overnight in TSB and sub-cultured to mid-logarithmic phase. […] From 1 to 3 days post-infection, indicated mice were injected subcutaneously with 110 mg/kg vancomycin twice daily where indicated. […] Mice were monitored for weight loss and body conditioning score throughout the infection. At 4 days post-infection, mice were euthanized, and the S. aureus kidney burden was quantified by tissue homogenization followed by enumeration of cfu through serial dilution in PBS and plating onto TSA plates. Data points represent the kidney burden from individual mice tested. Statistical analysis was conducted with GraphPad Prism 9, Version 9.4.1.

[11] = system: S. aureus MRSA strain NRS384; experiment: as above; format: in vivo, Balb/c mice; conditions: for S. aureus kidney burden, efficacy: NRS384
Description: as §2

[12] = Compound stability in CYP induction assay
in vitro [13] = conditions: SD, rat
[14] = system: Salmonella typhimurium ATCC 14028; experiment: S. typhimurium intracellular killing assay in THP-1 macrophages; format: cell-based; conditions: Salmonella typhimurium ATCC 14028 in THP-1 macrophages, top conc. 1e−4 M
Description: as §1

[15] = system: Salmonella typhimurium AR-0031; experiment: as above; format: cell-based; conditions: Salmonella typhimurium AR-0031 in THP-1 macrophages, top conc. 1e−4 M
Description: as §1

[16] = human
Sprague Dawley rats = experiment: 2-week IV once-a-day toxicity study with 2-week recovery in Sprague Dawley rats
Description: A subset from each dose group was maintained for 14 days after the last dose to evaluate delayed toxicity and/or recovery. All animals were observed twice daily for mortality and signs of pain or distress. Detailed clinical observations, body weight measurements and food consumption were conducted weekly; post dose observations (30 min post dose) were conducted daily or as required. Clinical pathology evaluations (hematology, coagulation parameters, and serum chemistry) were performed using samples collected on the day of scheduled sacrifice (main and recovery). At the end of the 14-day dosing period, and at the end of the 14-day recovery period, necropsies were performed on all animals, selected organs were weighed, and tissues were examined macroscopically and microscopically. Toxicokinetic parameters were evaluated on Day 1 and 14.

CYP3A4 = experiment: in vitro; conditions: human
CYP2B6 = experiment: in vitro; conditions: human
CYP1A2 = experiment: in vitro; conditions: human
[17] = 25 mg/kg in combination with vancomycin

hERG, sequence (Q12809 whole entry): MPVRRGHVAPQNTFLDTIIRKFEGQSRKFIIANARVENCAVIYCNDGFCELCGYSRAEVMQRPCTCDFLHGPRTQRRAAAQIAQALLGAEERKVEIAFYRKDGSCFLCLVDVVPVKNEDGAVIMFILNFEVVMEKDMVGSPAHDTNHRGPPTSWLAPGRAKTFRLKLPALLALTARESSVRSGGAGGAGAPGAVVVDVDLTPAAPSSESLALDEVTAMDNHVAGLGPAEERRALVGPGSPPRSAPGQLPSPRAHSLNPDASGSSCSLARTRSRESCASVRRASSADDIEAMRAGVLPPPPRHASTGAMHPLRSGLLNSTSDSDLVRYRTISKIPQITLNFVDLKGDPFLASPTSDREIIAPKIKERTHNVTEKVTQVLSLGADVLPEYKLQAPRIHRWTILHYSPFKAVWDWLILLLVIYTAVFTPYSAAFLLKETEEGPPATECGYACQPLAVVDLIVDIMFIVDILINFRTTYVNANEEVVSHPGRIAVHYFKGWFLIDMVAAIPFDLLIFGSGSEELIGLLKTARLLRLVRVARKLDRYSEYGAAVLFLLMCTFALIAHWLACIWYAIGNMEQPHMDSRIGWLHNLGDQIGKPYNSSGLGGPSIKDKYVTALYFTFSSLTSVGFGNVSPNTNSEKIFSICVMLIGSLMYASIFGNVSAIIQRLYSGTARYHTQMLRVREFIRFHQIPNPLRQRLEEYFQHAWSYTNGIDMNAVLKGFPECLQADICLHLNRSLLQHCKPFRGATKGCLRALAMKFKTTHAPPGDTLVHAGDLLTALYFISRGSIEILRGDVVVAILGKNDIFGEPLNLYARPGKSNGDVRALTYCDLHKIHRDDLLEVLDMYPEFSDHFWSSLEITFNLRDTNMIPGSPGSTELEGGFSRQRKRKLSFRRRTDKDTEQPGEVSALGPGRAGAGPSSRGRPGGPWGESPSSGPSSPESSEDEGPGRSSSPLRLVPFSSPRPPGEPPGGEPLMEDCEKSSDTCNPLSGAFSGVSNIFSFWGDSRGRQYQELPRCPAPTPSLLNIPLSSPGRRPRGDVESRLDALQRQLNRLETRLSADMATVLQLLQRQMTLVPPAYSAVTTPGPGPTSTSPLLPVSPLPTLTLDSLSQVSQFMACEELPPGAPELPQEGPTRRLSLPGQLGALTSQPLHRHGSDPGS

Compound: COc1cc(N)c(Cl)cc1C(=O)NC1CCN(CCCOc2ccc(F)cc2)CC1OC (centres unmarked) [Cisapride]
- inhibition at 0.09 µM (hERG): 87.6%

Compound: COC1C=COC2(C)Oc3c(C)c(O)c4c(=O)c(c5oc6cc(OCCN)ccc6nc-5c4c3C2=O)NC(=O)C(C)=CC=CC(C)C(O)C(C)C(O)C(C)C(OC(C)=O)C1C (centres unmarked) [Compound 2]
- Intracellular MIC (S. aureus NRS384 [1]): 1 µM
- Broth MIC (S. aureus NRS384 [2]): 0.412 µM

Compound: COC1C=COC2(C)Oc3c(C)c(O)c4c(=O)c(c5oc6ccc(OCCN(C)C)cc6nc-5c4c3C2=O)NC(=O)C(C)=CC=CC(C)C(O)C(C)C(O)C(C)C(OC(C)=O)C1C (centres unmarked) [Compound 6]
- Intracellular MIC (S. aureus NRS384 [1]): 1 µM
- Broth MIC (S. aureus NRS384 [2]): 0.0625 µM

- Mean B-A % Recovery [4]: 74.40%
- Mean B-A % Recovery [5]: 80.80%
- Papp A→B (in vitro [6]): 0.589 ×10⁻⁶ cm/s
- Papp B→A (in vitro [6]): 5.93 ×10⁻⁶ cm/s
- recovery (endogenous transporters): 79.5%
- Papp A→B (P-gp (MDR1)): 0.287 ×10⁻⁶ cm/s
- Papp B→A (P-gp (MDR1)): 6.25 ×10⁻⁶ cm/s
- recovery (P-gp (MDR1)): 76.5%
- % Protein Bound [7]: 79.1 ± 0.6%
- % Protein Free [7]: 20.9 ± 0.6%
- % Matrix Stability (6 h) [7]: 74.3%
- CLint scaled (in vitro [8]; S9 microsomes): < 45.5 mL/min/kg
- remaining at 2 h (in vitro [8]; S9 microsomes): 125%
- Average % Stability [12]: 85.2%
- CLint scaled (in vitro [13]; S9 microsomes): < 23.4 mL/min/kg
- remaining at 2 h (in vitro [13]; S9 microsomes): 129%
- % Recovery (vs. T0 stability) [16]: 81.9%
Compound: CO[C@H]1/C=C/O[C@@]2(C)Oc3c(C)c(O)c4c(O)c(c(/C=N/N5CCN(C)CC5)c(O)c4c3C2=O)NC(=O)/C(C)=C\C=C\[C@H](C)[C@H](O)[C@@H](C)[C@@H](O)[C@@H](C)[C@H](OC(C)=O)[C@@H]1C [Compound 1, rifampicin]
- Broth MIC [3]: 16 µM
- Intracellular MIC (S. aureus NRS384 [1]): 1 µM
- Broth MIC (S. aureus NRS384 [2]): 0.0156 µM
- Broth MIC [9]: 16 µM
- S. aureus kidney burden [10, 17]: to or near the limit of detection
- S. aureus kidney burden, efficacy [11, 17]: effective; also recorded: reduced kidney burden
- S. aureus kidney burden, efficacy ([11]; 25 mg/kg monotherapy): ineffective
- S. aureus kidney burden, efficacy ([11]; doses lower than 0.25 mg/kg in combination with vancomycin): efficacy was reduced to vancomycin alone levels
- Intracellular MIC [14]: No activity
- Intracellular MIC [15]: No activity

Compound: CNCCOc1ccc2nc3c4c5c6c(C)c(O)c4c(=O)c(c-3oc2c1)NC(=O)C(C)=CC=CC(C)C(O)C(C)C(O)C(C)C(OC(C)=O)C(C)C(OC)C=COC(C)(O6)C5=O (centres unmarked) [Compound 3]
- Intracellular MIC (S. aureus NRS384 [1]): 1 µM
- Broth MIC (S. aureus NRS384 [2]): 0.0457 µM

Compound: CN[C@H](CC(C)C)C(=O)N[C@H]1C(=O)N[C@@H](CC(N)=O)C(=O)N[C@H]2C(=O)N[C@H]3C(=O)N[C@H](C(=O)N[C@H](C(=O)O)c4cc(O)cc(O)c4-c4cc3ccc4O)[C@H](O)c3ccc(c(Cl)c3)Oc3cc2cc(c3O[C@@H]2O[C@H](CO)[C@@H](O)[C@H](O)[C@H]2O[C@H]2C[C@](C)(N)[C@H](O)[C@H](C)O2)Oc2ccc(cc2Cl)[C@H]1O [Vancomycin, reference compound]
- hematology changes (red cell mass decrease, neutrophil decrease, platelet increase) (Sprague Dawley rats; males given vancomycin alone 110 mg/kg/day, end of treatment): also noted in males given vancomycin alone
- body weight, body weight gains, food consumption changes (Sprague Dawley rats; rat, IV QD 14 days, alone or in combination with vancomycin): no body weight, body weight gains, or food consumption changes
- reduction in S. aureus kidney burden ([10]; vancomycin alone, 110 mg/kg sc twice daily): ~ 4 log
- reduction in S. aureus kidney burden ([11]; vancomycin alone, 110 mg/kg sc twice daily days 1-3, NRS384, day 4): 2–3 log

Compound: CO[C@H]1/C=C/O[C@@]2(C)Oc3c(C)c(O)c4c(c3C2=O)C2=NC3(CCN(CC(C)C)CC3)NC2=C(NC(=O)/C(C)=C\C=C\[C@H](C)[C@H](O)[C@@H](C)[C@@H](O)[C@@H](C)[C@H](OC(C)=O)[C@@H]1C)C4=O [Rifabutin]
- fold induction (CYP3A4): 2.36
- fold induction (CYP2B6): 2.65
- Mean A-B % Recovery [4]: 91.30%
- Mean B-A % Recovery [4]: 67.90%
- Mean B-A % Recovery [5]: 59.10%
- Papp A→B (in vitro [6]): 11 ×10⁻⁶ cm/s
- Papp B→A (in vitro [6]): 7.15 ×10⁻⁶ cm/s
- efflux ratio (in vitro [6]): 0.648
- recovery (endogenous transporters): 64.8%
- Papp A→B (P-gp (MDR1)): 3.57 ×10⁻⁶ cm/s
- Papp B→A (P-gp (MDR1)): 16.8 ×10⁻⁶ cm/s
- efflux ratio (P-gp (MDR1)): 4.7
- % Protein Bound [7]: 89.6 ± 0.5%
- % Protein Free [7]: 10.4 ± 0.5%
- % Matrix Stability (6 h) [7]: 104.9%
- CLint scaled (in vitro [8]; s9): 219 mL/min/kg
- half-life (in vitro [8]; s9): 0.417 h
- remaining at 2 h (in vitro [8]; s9): 4.6%
- Average % Stability [12]: 77.8%
- CLint scaled (in vitro [13]; s9): 2.35 mL/min/kg
- half-life (in vitro [13]; s9): 19.9 h
- remaining at 2 h (in vitro [13]; s9): 89%
- fold induction (CYP1A2): 2
- % Recovery (vs. T0 stability) [16]: 98.2%
